Test results: ChEMBL document CHEMBL1177792, “Pre-clinical characterization of aryloxypyridine amides as histamine H3 receptor antagonists: identification of candidates for clinical development” (Bioorg Med Chem Lett, 2010)
Calls of active or inactive are those of the source. The rule behind the calls is not given here.

Tests used:
[1] = Metabolic stability in rat liver microsomes assessed as compound remaining after 30 mins; assay type: ADME, Microsome; settings: read-out: Stability
[2] = Metabolic stability in human liver microsomes assessed as compound remaining after 30 mins; assay type: ADME, Microsome; settings: read-out: Stability
Rattus norvegicus [3] = experiment: Ex vivo receptor occupancy of histamine H3 receptor in Wistar rat brain at 10 mg/kg, po after 1 hr by autoradiography; assay type: functional
[4] = Drug level in Wistar rat brain at 10 mg/kg, po after 1 hr; assay type: ADME, organism-based; parameters: dose 10 mg/kg, route oral; settings: read-out: Drug uptake
[5] = Plasma concentration in Wistar rat at 10 mg/kg, po after 1 hr; assay type: ADME, organism-based; parameters: dose 10 mg/kg, route oral; settings: read-out: Drug uptake
[6] = Clearance in Sprague-Dawley rat at 1 mg/kg, iv and 10 mg/kg, po; assay type: ADME, organism-based; settings: in vivo
[7] = Volume of distribution at steady state in Sprague-Dawley rat at 1 mg/kg, iv and 10 mg/kg, po; assay type: ADME, organism-based; settings: in vivo, read-out: Vdss
[8] = Half life in Sprague-Dawley rat at 1 mg/kg, iv and 10 mg/kg, po; assay type: ADME, organism-based; settings: in vivo
[9] = Bioavailability in Sprague-Dawley rat at 1 mg/kg, iv and 10 mg/kg, po; assay type: ADME, organism-based; settings: in vivo
[10] = Clearance in Beagle dog at 1 mg/kg, iv and 5 mg/kg, po; assay type: ADME, organism-based, Canis lupus familiaris; settings: in vivo
[11] = Volume of distribution at steady state in Beagle dog at 1 mg/kg, iv and 5 mg/kg, po; assay type: ADME, organism-based, Canis lupus familiaris; settings: in vivo, read-out: Vdss
[12] = Half life in Beagle dog at 1 mg/kg, iv and 5 mg/kg, po; assay type: ADME, organism-based, Canis lupus familiaris; settings: in vivo
[13] = Bioavailability in Beagle dog at 1 mg/kg, iv and 5 mg/kg, po; assay type: ADME, organism-based, Canis lupus familiaris; settings: in vivo
[14] = Clearance in BALB/c mouse at 1 mg/kg, iv and 10 mg/kg, po; assay type: ADME, organism-based; settings: in vivo
[15] = Volume of distribution at steady state in BALB/c mouse at 1 mg/kg, iv and 10 mg/kg, po; assay type: ADME, organism-based; settings: in vivo, read-out: Vdss
[16] = Half life in BALB/c mouse at 1 mg/kg, iv and 10 mg/kg, po; assay type: ADME, organism-based; settings: in vivo
[17] = Bioavailability in BALB/c mouse at 1 mg/kg, iv and 10 mg/kg, po; assay type: ADME, organism-based; settings: in vivo
[18] = biological target: T1, Voltage-gated inwardly rectifying potassium channel KCNH2 (Homo sapiens, UniProt Q12809); experiment: Displacement of radiolabeled astemizole from human ERG
T1 sequence (Q12809 whole entry): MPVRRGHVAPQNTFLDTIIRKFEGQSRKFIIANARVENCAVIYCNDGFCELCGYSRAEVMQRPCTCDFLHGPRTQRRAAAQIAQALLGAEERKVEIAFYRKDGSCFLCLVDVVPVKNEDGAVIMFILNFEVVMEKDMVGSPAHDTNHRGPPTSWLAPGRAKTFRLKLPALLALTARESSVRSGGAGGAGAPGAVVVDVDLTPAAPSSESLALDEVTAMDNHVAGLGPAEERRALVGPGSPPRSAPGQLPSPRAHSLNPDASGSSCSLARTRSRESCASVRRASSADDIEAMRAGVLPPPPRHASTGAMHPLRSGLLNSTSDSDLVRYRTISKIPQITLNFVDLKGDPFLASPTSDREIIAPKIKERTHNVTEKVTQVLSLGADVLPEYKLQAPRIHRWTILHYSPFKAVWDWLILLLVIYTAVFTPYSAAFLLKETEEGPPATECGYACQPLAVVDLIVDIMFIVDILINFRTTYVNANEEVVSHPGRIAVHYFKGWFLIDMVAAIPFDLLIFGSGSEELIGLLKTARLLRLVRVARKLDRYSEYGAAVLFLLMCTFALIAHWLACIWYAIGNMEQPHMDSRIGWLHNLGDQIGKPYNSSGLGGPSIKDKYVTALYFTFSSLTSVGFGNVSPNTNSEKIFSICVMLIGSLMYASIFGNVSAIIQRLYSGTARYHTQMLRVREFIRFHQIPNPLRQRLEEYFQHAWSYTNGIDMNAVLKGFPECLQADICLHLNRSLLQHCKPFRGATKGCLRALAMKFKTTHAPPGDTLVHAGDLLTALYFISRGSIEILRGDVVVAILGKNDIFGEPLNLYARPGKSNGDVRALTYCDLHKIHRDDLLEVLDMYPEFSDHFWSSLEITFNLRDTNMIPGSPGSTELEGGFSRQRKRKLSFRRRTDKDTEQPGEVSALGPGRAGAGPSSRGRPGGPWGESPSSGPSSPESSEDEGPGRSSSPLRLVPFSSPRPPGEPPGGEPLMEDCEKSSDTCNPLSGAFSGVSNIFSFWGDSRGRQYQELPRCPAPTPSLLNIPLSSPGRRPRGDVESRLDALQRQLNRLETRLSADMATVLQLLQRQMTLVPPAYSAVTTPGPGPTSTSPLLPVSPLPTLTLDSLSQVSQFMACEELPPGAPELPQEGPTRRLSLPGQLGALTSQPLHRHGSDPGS

hERG (KCNH2) = hERG (KCNH2) (Homo sapiens, UniProt Q12809); experiment: Displacement of radiolabeled astemizole from human ERG at 10 uM; settings: probe radiolabeled astemizole
Sequence of hERG (KCNH2) (Q12809 whole entry): as above

[19] = biological target: T1, Voltage-gated inwardly rectifying potassium channel KCNH2; experiment: Inhibition of human ERG by patch clamp technique
[20] = Permeability from apical to basolateral side of human Caco-2 cells; assay type: ADME, cell-based; settings: read-out: permeability
[21] = Permeability from basolateral to apical side of human Caco-2 cells; assay type: ADME, cell-based; settings: read-out: permeability
[22] = Solubility in simulated gastric fluid; assay type: physicochemical
[23] = Solubility in water; assay type: physicochemical
Cytochrome P450 3A4 = Cytochrome P450 3A4 (Homo sapiens, UniProt P08684); experiment: Inhibition of CYP3A4 at 10 uM; assay type: ADME
Sequence of Cytochrome P450 3A4 (P08684 whole entry): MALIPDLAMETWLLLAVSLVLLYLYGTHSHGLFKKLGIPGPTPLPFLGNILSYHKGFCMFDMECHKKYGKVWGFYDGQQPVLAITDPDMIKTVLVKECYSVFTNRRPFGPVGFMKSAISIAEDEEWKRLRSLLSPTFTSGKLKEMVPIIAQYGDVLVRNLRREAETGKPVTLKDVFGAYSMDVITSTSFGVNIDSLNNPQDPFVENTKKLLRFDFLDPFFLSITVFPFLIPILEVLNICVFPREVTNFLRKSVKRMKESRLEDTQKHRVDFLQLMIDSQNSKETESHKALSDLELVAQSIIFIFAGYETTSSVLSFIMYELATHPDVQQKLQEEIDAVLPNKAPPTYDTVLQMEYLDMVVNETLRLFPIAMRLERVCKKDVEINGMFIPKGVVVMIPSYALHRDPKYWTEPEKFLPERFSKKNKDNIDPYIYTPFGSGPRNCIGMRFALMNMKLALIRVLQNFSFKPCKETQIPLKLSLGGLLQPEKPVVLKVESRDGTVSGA

Cytochrome P450 2D6 = Cytochrome P450 2D6 (Homo sapiens, UniProt P10635); experiment: Inhibition of CYP2D6 at 10 uM; assay type: ADME
Sequence of Cytochrome P450 2D6 (P10635 whole entry): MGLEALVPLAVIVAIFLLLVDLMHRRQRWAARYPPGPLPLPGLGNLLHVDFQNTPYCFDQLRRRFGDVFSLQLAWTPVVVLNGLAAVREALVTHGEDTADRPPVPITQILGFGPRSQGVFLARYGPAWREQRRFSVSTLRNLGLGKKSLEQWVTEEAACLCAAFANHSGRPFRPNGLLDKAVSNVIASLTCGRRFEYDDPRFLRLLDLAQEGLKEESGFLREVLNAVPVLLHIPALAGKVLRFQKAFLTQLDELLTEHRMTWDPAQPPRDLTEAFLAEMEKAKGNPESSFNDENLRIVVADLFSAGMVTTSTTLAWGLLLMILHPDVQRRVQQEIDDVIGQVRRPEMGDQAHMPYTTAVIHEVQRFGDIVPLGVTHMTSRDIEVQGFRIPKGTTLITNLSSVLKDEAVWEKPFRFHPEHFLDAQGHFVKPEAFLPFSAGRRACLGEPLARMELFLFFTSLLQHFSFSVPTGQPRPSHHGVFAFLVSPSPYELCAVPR

Cytochrome P450 2C9 = Cytochrome P450 2C9 (Homo sapiens, UniProt P11712); experiment: Inhibition of CYP2C9 at 10 uM; assay type: ADME
Sequence of Cytochrome P450 2C9 (P11712 whole entry): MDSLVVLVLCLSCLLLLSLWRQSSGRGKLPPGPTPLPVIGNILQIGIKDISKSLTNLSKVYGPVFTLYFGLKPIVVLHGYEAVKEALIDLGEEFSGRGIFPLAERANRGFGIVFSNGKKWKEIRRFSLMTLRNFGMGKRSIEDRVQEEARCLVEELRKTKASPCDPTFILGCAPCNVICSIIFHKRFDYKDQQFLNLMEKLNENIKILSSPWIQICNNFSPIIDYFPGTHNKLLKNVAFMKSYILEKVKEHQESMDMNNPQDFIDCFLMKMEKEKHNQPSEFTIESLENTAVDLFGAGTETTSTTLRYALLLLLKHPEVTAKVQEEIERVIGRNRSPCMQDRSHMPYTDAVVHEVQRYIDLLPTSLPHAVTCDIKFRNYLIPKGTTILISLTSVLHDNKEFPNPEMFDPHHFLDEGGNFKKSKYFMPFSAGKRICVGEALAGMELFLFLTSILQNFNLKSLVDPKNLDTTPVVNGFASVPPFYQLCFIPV

Rattus norvegicus [24] = experiment: Ex vivo receptor occupancy of histamine H3 receptor in Wistar rat brain at 3 mg/kg, po after 30 mins by [3H]R-alpha-methylhistamine bingind autoradiography; assay type: functional
[25] = Plasma concentration in Wistar rat at 3 mg/kg, po after 30 mins; assay type: ADME, organism-based; parameters: dose 3 mg/kg, route oral; settings: read-out: Drug uptake
[26] = Fraction unbound in rat plasma; assay type: ADME, cell-free
Rattus norvegicus [27] = experiment: Increase of histamine release in rat frontal cortex at 0.3 to 3 mg/kg, sc measured up to 300 mins; assay type: functional, organism-based
Brain = experiment: Drug level in rat brain at 3 mg/kg, sc; assay type: ADME, organism-based; parameters: dose 3 mg/kg, route subcutaneous; settings: in vivo, read-out: Drug uptake
Plasma = experiment: Plasma concentration in rat at 3 mg/kg, sc; assay type: ADME, organism-based; parameters: dose 3 mg/kg, route subcutaneous; settings: in vivo, read-out: Drug uptake
Rattus norvegicus [28] = experiment: Increase of wake duration in rat at 10 mg/kg, sc; assay type: functional, organism-based; parameters: dose 10 mg/kg
Rattus norvegicus [29] = experiment: Increase of wake duration in rat at 10 mg/kg, s.c.

remaining at 0.5 h [1]: 63%
remaining at 0.5 h [2]: 87%
concentration at 1 h [4]: 2650 nM
concentration at 1 h [5]: 1480 nM
clearance [6]: 49 mL/min/kg
Vd [7]: 3.5 L/kg
half-life [8]: 1.2 h
bioavailability [9]: 50%
clearance [10]: 35 mL/min/kg
Vd [11]: 7.2 L/kg
half-life [12]: 2.6 h
bioavailability [13]: 28%
clearance [14]: 94 mL/min/kg
Vd [15]: 8.7 L/kg
half-life [16]: 1.1 h
bioavailability [17]: 28%
Papp A→B [20]: 78 ×10⁻⁶ cm/s
Papp B→A [21]: 36 ×10⁻⁶ cm/s
solubility [22]: > 5000 µg/mL
solubility [23]: > 5000 µg/mL
Activity (Cytochrome P450 3A4): Not Active
Activity (Cytochrome P450 2D6): Not Active
Activity (Cytochrome P450 2C9): Not Active
concentration at 0.5 h [25]: 150 ng/mL
fraction unbound [26]: 0.15
concentration (Brain): 956 nM
concentration (Plasma): 257 nM
SMILES: O=C(c1ccc(Oc2ccc(F)cc2)nc1)N1CCCN(C2CCC2)CC1 [JNJ-39220675]
Activity (Rattus norvegicus [3]): 94%
IC50 [18]: > 10 µM
inhibition at 10 µM (hERG (KCNH2)): 0%
IC50 [19]: 3.5 µM
Activity (Rattus norvegicus [24]): 90%
Activity (Rattus norvegicus [27]): Active
Activity (Rattus norvegicus [28]): Active
Activity (Rattus norvegicus [29]): Active
